According to PubChem BioAssay (NCI):
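Protocol summary: plate cells (96-well), add compound at 5 concentrations, incubate 48 h, interpolate endpoints linearly. The concentration for 50% growth inhibition is given as GI50. TGI: concentration producing complete growth inhibition.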

Legend:
Experiment in all cases: NCI-60 cell line screen, 48 h
[1] = tested on: SN12C renal
[2] = tested on: BT-549 breast
[3] = tested on: NCI-H460 lung
[4] = tested on: HT29 colon
[5] = tested on: MDA-MB-231 breast
[6] = tested on: K-562 leukemia
[7] = tested on: TK-10 renal
[8] = tested on: OVCAR-8 ovarian
[9] = tested on: RPMI-8226 leukemia
[10] = tested on: UACC-62 melanoma
[11] = tested on: UO-31 renal
[12] = tested on: SW-620 colon
[13] = tested on: SF-539 CNS
[14] = tested on: HL-60(TB) leukemia
[15] = tested on: OVCAR-4 ovarian
[16] = tested on: SK-MEL-2 melanoma
[17] = tested on: OVCAR-3 ovarian
[18] = tested on: HCT-116 colon
[19] = tested on: HS 578T breast
[20] = tested on: SF-295 CNS
[21] = tested on: RXF 393 renal
[22] = tested on: SR leukemia
[23] = tested on: HOP-92 NSCLC
[24] = tested on: MOLT-4 leukemia
[25] = tested on: 786-0 renal
[26] = tested on: HOP-62 NSCLC
[27] = tested on: SK-OV-3 ovarian
[28] = tested on: SK-MEL-28 melanoma
[29] = tested on: EKVX NSCLC
[30] = tested on: MDA-MB-435
[31] = tested on: SNB-19 CNS
[32] = tested on: CAKI-1 renal
[33] = tested on: IGROV1 ovarian
[34] = tested on: NCI/ADR-RES ovarian
[35] = tested on: T-47D breast
[36] = tested on: KM12 colon
[37] = tested on: NCI-H226 lung
[38] = tested on: LOX IMVI melanoma
[39] = tested on: SF-268 CNS
[40] = tested on: DU-145 prostate
[41] = tested on: PC-3 prostate
[42] = tested on: UACC-257 melanoma
[43] = tested on: MCF7 breast
[44] = tested on: CCRF-CEM leukemia
[45] = tested on: OVCAR-5 ovarian
[46] = tested on: NCI-H23 lung
[47] = tested on: SK-MEL-5 melanoma
[48] = tested on: HCC-2998 colon
[49] = tested on: MALME-3M melanoma
[50] = tested on: NCI-H522 lung
[51] = tested on: COLO 205 colon
[52] = tested on: M14 melanoma
[53] = tested on: U251 CNS
[54] = tested on: HCT-15 colon
[55] = tested on: ACHN renal
[56] = tested on: A549 NSCLC

Question: Which results are given for O=S(=O)(Nc1ccc(I)c(Cl)c1)c1ccc(-c2cnc(C3CC3)o2)cc1?
Answer: GI50 [1]: 3.17 µM; TGI [1]: 15.2 µM; GI50 [2]: 1370 nM; TGI [2]: 16 µM; GI50 [3]: 1500 nM; TGI [3]: 10.2 µM; GI50 [4]: 994 nM; TGI [4]: 5.8 µM; GI50 [5]: 3.96 µM; TGI [5]: 19.4 µM; GI50 [6]: 456 nM; TGI [6]: 27.4 µM; GI50 [7]: 3.15 µM; TGI [7]: 17 µM; GI50 [8]: 3.08 µM; TGI [8]: 15.3 µM; GI50 [9]: 2610 nM; TGI [9]: 23.1 µM; GI50 [10]: 475 nM; TGI [10]: 12.8 µM; GI50 [11]: 2710 nM; TGI [11]: 15.5 µM; GI50 [12]: 650 nM; TGI [12]: 13.4 µM; GI50 [13]: 1260 nM; TGI [13]: 5.23 µM; GI50 [14]: 461 nM; TGI [14]: 3.93 µM; GI50 [15]: 3.3 µM; TGI [15]: 14.9 µM; GI50 [16]: 1310 nM; TGI [16]: 16.7 µM; GI50 [17]: 404 nM; TGI [17]: 2890 nM; GI50 [18]: 1130 nM; TGI [18]: 11.9 µM; GI50 [19]: 416 nM; TGI [19]: 3.01 µM; GI50 [20]: 362 nM; TGI [20]: 1410 nM; GI50 [21]: 1490 nM; TGI [21]: 7.55 µM; GI50 [22]: 317 nM; TGI [22]: 17.7 µM; GI50 [23]: 434 nM; TGI [23]: 5.76 µM; GI50 [24]: 1390 nM; TGI [24]: 22.5 µM; GI50 [25]: 2570 nM; TGI [25]: 17.2 µM; GI50 [26]: 1590 nM; TGI [26]: 17.6 µM; GI50 [27]: 3.35 µM; TGI [27]: 17.6 µM; GI50 [28]: 3.13 µM; TGI [28]: 19.9 µM; GI50 [29]: 2850 nM; TGI [29]: 15.7 µM; GI50 [30]: 259 nM; TGI [30]: 817 nM; GI50 [31]: 1690 nM; TGI [31]: 17 µM; GI50 [32]: 658 nM; TGI [32]: 14.9 µM; GI50 [33]: 1450 nM; TGI [33]: 16.6 µM; GI50 [34]: 761 nM; TGI [34]: 6.82 µM; GI50 [35]: 1520 nM; TGI [35]: 16.2 µM; GI50 [36]: 888 nM; TGI [36]: 12.4 µM; GI50 [37]: 3.97 µM; TGI [37]: 18.9 µM; GI50 [38]: 2640 nM; TGI [38]: 17.7 µM; GI50 [39]: 3.15 µM; TGI [39]: 18.9 µM; GI50 [40]: 2630 nM; TGI [40]: 11.8 µM; GI50 [41]: 1120 nM; TGI [41]: 11.7 µM; GI50 [42]: 3.74 µM; TGI [42]: 21.7 µM; GI50 [43]: 454 nM; TGI [43]: 12 µM; GI50 [44]: 877 nM; TGI [44]: 23.1 µM; GI50 [45]: 3.06 µM; TGI [45]: 13.3 µM; GI50 [46]: 2680 nM; TGI [46]: 14 µM; GI50 [47]: 2700 nM; TGI [47]: 13.1 µM; GI50 [48]: 2370 nM; TGI [48]: 11.2 µM; GI50 [49]: 1500 nM; TGI [49]: 23 µM; GI50 [50]: 557 nM; TGI [50]: 7.49 µM; GI50 [51]: 3.04 µM; TGI [51]: 15.6 µM; GI50 [52]: 969 nM; TGI [52]: 12.3 µM; GI50 [53]: 1530 nM; TGI [53]: 12.6 µM; GI50 [54]: 582 nM; TGI [54]: 12.3 µM; GI50 [55]: 3.03 µM; TGI [55]: 16.8 µM; GI50 [56]: 1570 nM; TGI [56]: 12.7 µM
